In patent US12611438B2, “Antiviral composition comprising a nucleolin-binding peptide” (ANYGEN CO., LTD., priority 2021, dated 2026):

Legend:
in vivo = details: C57BL/6, mouse, serum, 2 mg/kg
Experimental: (§1) In order to determine whether or not the stability of the peptide is enhanced, the in vivo half-life of the peptide was analyzed. […] The absorbance was measured at a wavelength of 450 nm using a VersaMax ELISA plate reader (Molecular Devices) and pharmacokinetics were analyzed with the phoenix WinNonlin 8.1 (Pharsight Corporation, Mountain View, CA, USA) program.

[1] = 2 mg/kg, tail vein, C57BL/6 mice
Experimental: as §1

SARS-COV-2 = experiment: microbe, parasite or virus in culture; details: Severe acute respiratory syndrome coronavirus 2, Vero C1008, 24 h
in vitro = details: African green monkey
MDA-MB-231 = experiment: OBOC bead whole-cell binding assay; details: peptide on OBOC beads, cells at 10^6 cells/ml
Experimental: (§2) Before screening, beads were extensively washed with double distilled water and phosphate buffered saline (PBS; Welgene Inc., Republic of Korea). Cancer cells and normal cells were separated from the culture dish using trypsin/EDTA (Gibco) and washed with the corresponding culture medium. The cells were resuspended at 10^6 cells/ml and cultured while shaking (60 rpm) in a 37° C. humidified CO2 incubator with OBOC beads in a Petri dish. Beads bound by cells observed with the microscope had the shape of rosettes having central beads covered with one or more cell layers. Under an inverted microscope, positive beads were picked out with a pipette, and treated with guanidine-HCL (8M, 20 minutes) to remove cells and proteins from the bead surface, and secondary screening was performed with normal breast epithelial cells to detect false positive binding. Peptide sequencing was performed by selecting only beads having cell binding in both rounds.
(§3) Libraries of peptides listed in beads (50,000 to 100,000 beads were used at one time) was mixed with a human breast cancer cell line (MDA-MB-231). […] Then, these three peptides were labeled with fluorescein isothiocyanate (FITC) and the ability thereof to bind to MDA-MB-231 cells was determined.

MCF-10A, CCD-18Co = experiment: Bead whole-cell binding assay, normal cell lines; details: cell growth bead analysis
Experimental: as §2, §3

## CSCC[C@H](NC(=O)[C@H](C)NC(=O)CNC(=O)[C@H](Cc1c[nH]cn1)NC(=O)[C@@H](N)CCCNC(=N)N)C(=O)N[C@H](C(=O)N[C@@H](Cc1ccc(O)cc1)C(=O)N[C@@H](CC(C)C)C(=O)N[C@@H](CCCCN)C(=O)NCCOCCOCCOCCOCCOCCOCCC(=O)NCCCC[C@H](NC(=O)CCOCCOCCOCCOCCOCCOCCNC(=O)[C@H](CCCCN)NC(=O)[C@H](CC(C)C)NC(=O)[C@H](Cc1ccc(O)cc1)NC(=O)[C@@H](NC(=O)[C@H](CCSC)NC(=O)[C@H](C)NC(=O)CNC(=O)[C@H](Cc1c[nH]cn1)NC(=O)[C@@H](N)CCCNC(=N)N)C(C)C)C(=O)NCCCC[C@H](NC(=O)[C@H](CCCCNC(=O)CCOCCOCCOCCOCCOCCOCCNC(=O)[C@H](CCCCN)NC(=O)[C@H](CC(C)C)NC(=O)[C@H](Cc1ccc(O)cc1)NC(=O)[C@@H](NC(=O)[C@H](CCSC)NC(=O)[C@H](C)NC(=O)CNC(=O)[C@H](Cc1c[nH]cn1)NC(=O)[C@@H](N)CCCNC(=N)N)C(C)C)NC(=O)CCOCCOCCOCCOCCOCCOCCNC(=O)[C@H](CCCCN)NC(=O)[C@H](CC(C)C)NC(=O)[C@H](Cc1ccc(O)cc1)NC(=O)[C@@H](NC(=O)[C@H](CCSC)NC(=O)[C@H](C)NC(=O)CNC(=O)[C@H](Cc1c[nH]cn1)NC(=O)[C@@H](N)CCCNC(=N)N)C(C)C)C(=O)N[C@@H](CS)C(=O)O)C(C)C [AGM-330t]
In vivo; intravenous
  Cmax: 1880 ± 670 ng/mL
  Tmax: 0.167 h
  half-life: 9.43 ± 1.21 h
In vivo; iv
  AUC: 21400 ± 810 ng·h/mL
[1]
  in vivo stability compared with monomeric or dimeric peptides: higher stability

## CCN(CC)CCCC(C)Nc1ccnc2cc(Cl)ccc12 (stereo not drawn) [Chloroquine, chloroquine]
SARS-COV-2
  IC50: 8.25 µM

## Cc1cccc(C)c1OCC(=O)N[C@@H](Cc1ccccc1)[C@@H](O)C[C@H](Cc1ccccc1)NC(=O)[C@H](C(C)C)N1CCCNC1=O [Lopinavir, lopinavir]
In vitro
  CC50 at 24 h: > 50 µM
SARS-COV-2
  IC50: 15.5 µM

## CCC(CC)COC(=O)[C@H](C)N[P@](=O)(OC[C@H]1O[C@@](C#N)(c2ccc3c(N)ncnn23)[C@H](O)[C@@H]1O)Oc1ccccc1 [Remdesivir, remdesivir]
In vitro
  CC50: > 50 µM
SARS-COV-2
  IC50: 10.9 µM

## AVARARRRR (Synthetic construct AGM-332)
MDA-MB-231
  binding to breast cancer cell line MDA-MB-231: strong, specific, and preferential binding
MCF-10A, CCD-18Co
  binding to normal cell lines MCF-10A and CCD-18Co: relatively non-specific and bound
